Calls of active or inactive are those of the source.
Experiments:
Galanin receptor type 3 = target: T1, Galanin receptor type 3 (Homo sapiens, UniProt O60755); experiment: Fluorescence-based cell-based primary high throughput dose response assay to identify antagonists of the Galanin Receptor 3 (GalR3).; assay type: functional
T1 sequence (O60755 whole entry): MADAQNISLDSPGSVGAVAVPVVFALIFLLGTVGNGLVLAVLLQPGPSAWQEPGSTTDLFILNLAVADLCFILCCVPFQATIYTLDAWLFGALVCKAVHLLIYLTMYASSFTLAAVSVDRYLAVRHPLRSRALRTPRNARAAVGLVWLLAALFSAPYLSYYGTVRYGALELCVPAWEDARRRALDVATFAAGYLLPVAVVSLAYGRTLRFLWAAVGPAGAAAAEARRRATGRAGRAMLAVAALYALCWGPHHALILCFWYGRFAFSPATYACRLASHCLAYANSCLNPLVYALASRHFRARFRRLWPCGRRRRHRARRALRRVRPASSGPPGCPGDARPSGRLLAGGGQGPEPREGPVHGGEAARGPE

cells [1] = assay type: functional, cell-based; conditions: HEK-CNG
[2] = target: T2, Heat shock factor protein 1 (Mus musculus, UniProt P38532); experiment: decrease of HSF1-responsive luciferase luminescence – cell-based, NIH3T3, dose retest, confirmation (AID 2382); assay type: functional;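 also: NIH3T3 fibroblasts with HSF1-driven luciferase reporter stressed by proteasome inhibitor MG132; luminescence from HSF1-driven luciferase expression after 8 hours of MG132 stress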
T2 sequence (P38532 whole entry): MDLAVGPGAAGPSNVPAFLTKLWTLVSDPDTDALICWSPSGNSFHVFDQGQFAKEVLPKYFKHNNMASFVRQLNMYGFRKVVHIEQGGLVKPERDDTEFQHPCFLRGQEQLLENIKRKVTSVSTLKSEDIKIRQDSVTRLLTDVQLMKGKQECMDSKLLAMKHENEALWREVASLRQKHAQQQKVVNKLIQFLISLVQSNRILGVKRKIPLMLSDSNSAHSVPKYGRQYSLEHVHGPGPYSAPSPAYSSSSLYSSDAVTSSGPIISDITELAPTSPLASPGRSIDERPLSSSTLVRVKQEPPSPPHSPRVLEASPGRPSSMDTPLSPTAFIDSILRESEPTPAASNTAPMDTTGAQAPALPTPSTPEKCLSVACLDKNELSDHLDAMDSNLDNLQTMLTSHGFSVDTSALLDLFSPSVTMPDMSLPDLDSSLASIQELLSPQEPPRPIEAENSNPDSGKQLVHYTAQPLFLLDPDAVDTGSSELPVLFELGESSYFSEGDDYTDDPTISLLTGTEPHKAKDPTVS

[3] = Trypanosoma cruzi growth suppression in host cells – NIH3T3 host cells, beta-gal luminescence, confirmation (AID 2044); assay type: functional, cell-based;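 also: intracellular parasites grown in NIH/3T3 mouse fibroblasts as host cells; luminescent beta-galactosidase reporter signal from transgenic T. cruzi replicating inside host cells; inhibitors lower the luminescence signal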
[4] = target: SWI/SNF-related matrix-associated actin-dependent regulator of chromatin subfamily A member 2 (Homo sapiens, UniProt P51531); experiment: Luminescence-based cell-based high throughput dose response assay to identify activators of the function of SWI/SNF related, matrix associated, actin dependent regulator of chromatin, subfamily a, member 2 (SMARCA2, BRM).; assay type: functional
Chain of SWI/SNF-related matrix-associated actin-dependent regulator of chromatin subfamily A member 2 (P51531 whole entry): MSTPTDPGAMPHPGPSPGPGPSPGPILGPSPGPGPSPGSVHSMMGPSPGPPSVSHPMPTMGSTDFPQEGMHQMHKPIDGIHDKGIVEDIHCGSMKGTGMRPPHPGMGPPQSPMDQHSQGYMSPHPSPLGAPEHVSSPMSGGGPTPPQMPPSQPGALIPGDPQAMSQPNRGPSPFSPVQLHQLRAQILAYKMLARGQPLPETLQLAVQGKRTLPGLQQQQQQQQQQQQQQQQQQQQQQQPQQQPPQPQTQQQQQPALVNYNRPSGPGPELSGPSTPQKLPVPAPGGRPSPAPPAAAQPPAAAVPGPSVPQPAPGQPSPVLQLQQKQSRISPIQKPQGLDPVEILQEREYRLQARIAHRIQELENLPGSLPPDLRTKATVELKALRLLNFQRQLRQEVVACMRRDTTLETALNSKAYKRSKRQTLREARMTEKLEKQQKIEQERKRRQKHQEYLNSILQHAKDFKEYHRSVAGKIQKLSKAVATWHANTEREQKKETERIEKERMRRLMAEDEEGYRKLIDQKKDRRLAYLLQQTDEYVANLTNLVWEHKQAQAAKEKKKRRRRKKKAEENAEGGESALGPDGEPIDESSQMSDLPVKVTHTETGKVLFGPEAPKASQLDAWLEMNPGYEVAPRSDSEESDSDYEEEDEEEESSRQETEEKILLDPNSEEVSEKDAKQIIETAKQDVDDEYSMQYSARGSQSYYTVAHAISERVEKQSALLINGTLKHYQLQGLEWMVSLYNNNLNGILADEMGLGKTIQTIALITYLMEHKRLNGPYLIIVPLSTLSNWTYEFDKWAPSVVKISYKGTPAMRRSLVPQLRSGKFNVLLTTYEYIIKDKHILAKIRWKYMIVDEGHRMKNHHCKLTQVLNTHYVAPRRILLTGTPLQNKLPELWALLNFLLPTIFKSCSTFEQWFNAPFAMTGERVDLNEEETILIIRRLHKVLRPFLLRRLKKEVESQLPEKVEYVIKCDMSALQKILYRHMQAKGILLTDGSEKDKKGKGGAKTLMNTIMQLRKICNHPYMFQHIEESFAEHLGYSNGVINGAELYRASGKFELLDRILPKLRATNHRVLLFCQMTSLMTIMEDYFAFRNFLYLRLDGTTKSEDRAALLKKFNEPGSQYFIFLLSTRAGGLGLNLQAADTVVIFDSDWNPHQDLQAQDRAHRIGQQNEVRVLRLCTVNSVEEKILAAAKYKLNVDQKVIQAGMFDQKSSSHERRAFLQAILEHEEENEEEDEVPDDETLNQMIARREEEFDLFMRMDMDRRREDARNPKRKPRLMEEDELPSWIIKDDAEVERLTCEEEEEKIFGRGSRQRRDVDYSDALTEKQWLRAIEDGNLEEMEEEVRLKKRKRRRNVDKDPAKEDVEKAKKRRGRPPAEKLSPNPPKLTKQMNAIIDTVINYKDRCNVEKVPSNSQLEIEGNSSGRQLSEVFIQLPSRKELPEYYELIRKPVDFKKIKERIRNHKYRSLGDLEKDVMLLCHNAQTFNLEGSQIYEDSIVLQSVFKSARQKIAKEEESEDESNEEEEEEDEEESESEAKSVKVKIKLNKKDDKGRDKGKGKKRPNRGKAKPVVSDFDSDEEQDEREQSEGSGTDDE

[5] = target: T3, DNA repair protein RAD52 homolog (Homo sapiens, UniProt P43351); assay type: functional, biochemical
T3 sequence (P43351 whole entry): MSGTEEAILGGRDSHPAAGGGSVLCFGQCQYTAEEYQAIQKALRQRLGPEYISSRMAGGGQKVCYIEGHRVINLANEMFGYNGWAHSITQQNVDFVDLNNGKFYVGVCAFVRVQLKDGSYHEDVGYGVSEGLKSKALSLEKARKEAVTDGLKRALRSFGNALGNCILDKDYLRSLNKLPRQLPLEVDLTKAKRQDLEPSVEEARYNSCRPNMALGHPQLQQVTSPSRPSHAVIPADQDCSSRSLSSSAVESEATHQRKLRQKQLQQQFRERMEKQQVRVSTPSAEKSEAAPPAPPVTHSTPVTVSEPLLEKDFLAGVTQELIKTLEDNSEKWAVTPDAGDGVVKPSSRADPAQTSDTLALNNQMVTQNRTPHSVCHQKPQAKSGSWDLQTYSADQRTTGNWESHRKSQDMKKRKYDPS

[6] = Counterscreen for activators of the function of SWI/SNF related, matrix associated, actin dependent regulator of chromatin, subfamily a, member 2 (SMARCA2, BRM): Luminescence-based cell-based high throughput dose response assay to identify non-selective compounds using the VP16 reporter assay.; assay type: functional
Aminopeptidase N = target: T4, Aminopeptidase N (Plasmodium falciparum FcB1/Columbia, UniProt O96935); experiment: malaria alanyl aminopeptidase activity blockers – biochemical, fluorogenic H-Leu-NHMec substrate, 1536-well (AID 1445); set-up: species or system Plasmodium falciparum 3D7, 3D7
T4 sequence (O96935 whole entry): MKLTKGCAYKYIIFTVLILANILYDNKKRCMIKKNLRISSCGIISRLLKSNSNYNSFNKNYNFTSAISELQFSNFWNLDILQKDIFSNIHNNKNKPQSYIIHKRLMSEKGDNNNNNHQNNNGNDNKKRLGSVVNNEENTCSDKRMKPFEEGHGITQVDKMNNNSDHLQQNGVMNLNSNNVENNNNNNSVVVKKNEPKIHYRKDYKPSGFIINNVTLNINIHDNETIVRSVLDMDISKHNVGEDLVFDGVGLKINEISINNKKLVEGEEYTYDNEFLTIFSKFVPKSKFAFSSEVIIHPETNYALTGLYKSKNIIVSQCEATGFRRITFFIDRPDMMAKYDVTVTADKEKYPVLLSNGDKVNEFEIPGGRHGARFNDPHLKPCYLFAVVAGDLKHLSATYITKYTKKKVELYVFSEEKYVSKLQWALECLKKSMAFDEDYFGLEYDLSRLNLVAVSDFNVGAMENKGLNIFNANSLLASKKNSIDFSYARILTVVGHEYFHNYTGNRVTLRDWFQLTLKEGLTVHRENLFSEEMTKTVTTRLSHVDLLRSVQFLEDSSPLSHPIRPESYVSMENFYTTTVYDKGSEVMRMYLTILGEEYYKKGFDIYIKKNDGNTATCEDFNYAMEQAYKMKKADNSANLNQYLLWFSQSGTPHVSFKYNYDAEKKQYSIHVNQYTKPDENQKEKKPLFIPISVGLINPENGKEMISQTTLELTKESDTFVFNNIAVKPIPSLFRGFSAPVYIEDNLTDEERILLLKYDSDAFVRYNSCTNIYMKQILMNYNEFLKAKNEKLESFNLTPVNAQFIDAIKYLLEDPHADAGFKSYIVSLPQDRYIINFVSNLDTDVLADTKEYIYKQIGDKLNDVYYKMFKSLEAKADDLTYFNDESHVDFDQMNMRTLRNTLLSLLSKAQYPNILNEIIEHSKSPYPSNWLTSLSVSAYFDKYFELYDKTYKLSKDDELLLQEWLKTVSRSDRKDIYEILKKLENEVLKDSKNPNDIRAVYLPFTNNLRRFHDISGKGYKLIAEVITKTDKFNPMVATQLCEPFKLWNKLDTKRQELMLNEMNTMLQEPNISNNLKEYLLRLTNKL

[7] = NIH3T3 cell viability loss – ATP luminescence, mouse fibroblasts, counter-screen, dose response (AID 2010); assay type: functional, cell-based;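 also: cells exposed to compound for about 90 hours before reading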
[8] = HIV-1 AD8 envelope cell-cell fusion blockers – cherry-pick, dose response (AID 652062); assay type: functional, cell-based;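 also: luciferase signal from cell-cell fusion driven by HIV-1 clade B AD8 Env; potency is for inhibitors of fusion seen as a drop in luminescence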
[9] = off-target signal loss in HeLa-CEM21 co-culture – HeLa F-luc CTL cells, cherry-picked, counter-screen for HIV-1 Env fusion inhibitor project, dose response (AID 652040); assay type: functional, cell-based;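 also: potency for signal decrease marking cytotoxic or nonspecific inhibition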
[10] = blockers of HIV-1 envelope-mediated cell-cell fusion – cherry-pick, dose response (AID 652057); assay type: functional, cell-based
[11] = blockers of HIV-1 ZM109 envelope-driven cell-cell fusion – HeLa effector, CEM target cells, luciferase, cherry-pick, dose response (AID 652058); assay type: functional, cell-based;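 also: luciferase signal from HIV-1 Env mediated cell-cell fusion of effector and target cells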
[12] = activation of miR-122 Renilla sensor silencing – cell-based, Huh7 psiCHECK-miR122, Renilla luciferase, cherry-picked, dose response (AID 651956); assay type: functional;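 also: huh7 hepatoma cells stably carrying a psiCHECK-2 miR-122 sensor plasmid; renilla luciferase signal reporting endogenous miR-122 activity after 48 h compound exposure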
[13] = general mammalian cell viability loss – inhibitor set, cherry-pick, set 2, cytotoxicity control for miR-122 modulator project, dose response (AID 720697); assay type: functional, cell-based
HeLa = experiment: viability loss in HeLa cells – cell-based, ATP luminescence, cherry-pick samples, cytotoxicity control, dose response (AID 687004); assay type: functional; conditions: Homo sapiens
cells [14] = assay type: functional, cell-based
[15] = target: T5, Calpain-2 catalytic subunit (Sus scrofa, UniProt P43367); experiment: m-calpain protease blockers, concentration series – biochemical, fluorogenic peptide substrate, dose response (AID 1420); assay type: functional
T5 sequence (P43367 whole entry): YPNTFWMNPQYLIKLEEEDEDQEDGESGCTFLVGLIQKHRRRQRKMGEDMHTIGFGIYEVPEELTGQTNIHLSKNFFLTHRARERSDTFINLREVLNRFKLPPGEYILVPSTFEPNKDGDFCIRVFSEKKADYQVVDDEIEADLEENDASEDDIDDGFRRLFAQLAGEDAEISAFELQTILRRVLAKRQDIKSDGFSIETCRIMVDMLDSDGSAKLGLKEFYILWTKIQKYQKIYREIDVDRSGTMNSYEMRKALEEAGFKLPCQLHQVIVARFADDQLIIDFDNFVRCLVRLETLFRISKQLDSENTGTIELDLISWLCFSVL

cells [16] = assay type: functional, cell-based; remark: listed apart in the source
[17] = viability loss in CEM21 cells – cell-based, CellTiter-Glo luminescence, cherry-picked, cytotoxicity control for viral fusion inhibitor project, dose response (AID 652042); assay type: functional;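 also: potency for signal decrease meaning cytotoxicity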

Compound: N#Cc1c(N)nc2c3c(sc(=N)c2c1N)NC(=O)CC3c1ccccc1 (stereo unspecified)
- IC50 (Galanin receptor type 3): > 29.9 µM (inactive)
- EC50 (cells [1]): > 29.9 µM (inactive)
- EC50 [2]: > 195 µM (not active)

Compound: Cc1nc(NC(=N)N)nc2c(C)cccc12
- EC50 [3]: 371 nM (active)
- EC50 [4]: > 10.1 µM (inactive)
- AC50 [5]: 1.4 µM (active)
- EC50 [6]: > 91.1 µM (inactive)
- IC50 (Aminopeptidase N): 47.6 µM (active)
- EC50 [7]: > 60 µM (not active)

Compound: COc1ccc(Cn2nnnc2C(c2cc3cccc(C)c3nc2O)N2CCOCC2)cc1 (stereo unspecified)
- AC50 [8]: 6.17 µM (active)
- AC50 [9]: 7.1 µM (active)
- AC50 [10]: 6.52 µM (active)
- AC50 [11]: 5.44 µM (active)

Compound: C[C@@H]1CN([C@@H](C)CO)S(=O)(=O)c2ccc(-c3ccc(C(=O)N(C)C)cc3)cc2O[C@@H]1CN(C)C(=O)C1CCC1
- AC50 [12]: 13.8 µM (active)
- AC50 [13]: 516 nM (active)

Compound: COC(=O)C1=C(C)N(Cc2ccccc2)C(=S)N[C@H]1c1cccc(C(F)(F)F)c1
- AC50 (HeLa): > 52 µM (inactive)

Compound: O=C(NCCc1ccccc1)c1cnc2n(c1=O)CCS2
- IC50 (cells [14]): > 29.9 µM (inactive)
- IC50 [15]: 24.2 µM (not active)
- EC50 (cells [16]): > 29.9 µM (inactive)

Compound: NC(c1csc(NC(=O)Nc2cccc(Cl)c2)n1)c1ccccc1Cl (stereo unspecified)
- AC50 [8]: 28.5 µM (active)
- AC50 [9]: 29.4 µM (active)
- AC50 [10]: 11.9 µM (active)
- AC50 [17]: 16.4 µM (active)
- AC50 [11]: 16.2 µM (active)

Compound: COc1cc(CCC(=O)OCC(=O)Nc2sccc2C(N)=O)cc(OC)c1OC
- IC50 (Galanin receptor type 3): 1.55 µM (active)
- EC50 (cells [1]): > 29.9 µM (inactive)
